From the supplement of paper PMC10307832

Assays:
Test in all cases: relative viability (nuclei count vs DMSO), 5 days (fraction); higher = more cells survive
[1] = compound: O[C@@H](COc1cccc2ncccc12)CN1CCN([C@@H]2c3ccccc3[C@@H]3[C@H](c4ccccc42)C3(F)F)CC1 [Zosuquidar] + Nc1ncn([C@H]2C[C@H](O)[C@@H](CO)O2)c(=O)n1 [Decitabine] (partner 2 µM)
Summary of the method: (§1)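 Relative viability was taken as the ratio of nuclei in treated wells to nuclei in vehicle wells. Lung cancer cell lines in 1536-well plates received compounds by pin tool one day after seeding, either one drug alone or a fixed anchor-drug dose plus five library-drug doses (not always all listed) in √10 steps. Nuclei were counted on 4× images after 5 days of treatment, and values are medians of duplicate plates.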

[2] = compound: C1=CC(=CC=C1NC(=S)NNC2=C(C=C(C=C2[N+](=O)[O-])C(F)(F)F)[N+](=O)[O-])F [Kobe2602] + CS(=O)(=O)CCNCc1ccc(-c2ccc3ncnc(Nc4ccc(OCc5cccc(F)c5)c(Cl)c4)c3c2)o1 [Lapatinib] (partner 2 µM)
Summary of the method: as §1

[3] = compound: C1=CC(=CC=C1NC(=S)NNC2=C(C=C(C=C2[N+](=O)[O-])C(F)(F)F)[N+](=O)[O-])F [Kobe2602] + CS(=O)(=O)N1CCN(Cc2cc3nc(-c4cccc5[nH]ncc45)nc(N4CCOCC4)c3s2)CC1 [Pictilisib] (partner 1 µM)
Summary of the method: as §1

[4] = compound: O[C@@H](COc1cccc2ncccc12)CN1CCN([C@@H]2c3ccccc3[C@@H]3[C@H](c4ccccc42)C3(F)F)CC1 [Zosuquidar] + CS(=O)(=O)N1CCN(Cc2cc3nc(-c4cccc5[nH]ncc45)nc(N4CCOCC4)c3s2)CC1 [Pictilisib] (partner 1 µM)
Summary of the method: as §1

| Cell Line | relative viability ([1]; first compound 0.01 µM) | relative viability ([1]; first compound 0.03162 µM) | relative viability ([1]; first compound 0.1 µM) | relative viability ([1]; first compound 0.3162 µM) | relative viability ([1]; first compound 1 µM) | relative viability ([2]; first compound 0.2 µM) | relative viability ([2]; first compound 0.6325 µM) | relative viability ([2]; first compound 2 µM) | relative viability ([2]; first compound 6.325 µM) | relative viability ([2]; first compound 20 µM) | relative viability ([3]; first compound 0.2 µM) | relative viability ([3]; first compound 0.6325 µM) | relative viability ([3]; first compound 2 µM) | relative viability ([3]; first compound 6.325 µM) | relative viability ([3]; first compound 20 µM) | relative viability ([4]; first compound 0.01 µM) | relative viability ([4]; first compound 0.03162 µM) | relative viability ([4]; first compound 0.1 µM) | relative viability ([4]; first compound 0.3162 µM) | relative viability ([4]; first compound 1 µM) |
| --- | --- | --- | --- | --- | --- | --- | --- | --- | --- | --- | --- | --- | --- | --- | --- | --- | --- | --- | --- | --- |
| LXF-289 | 0.357 | 0.364 | 0.367 | 0.418 | 0.403 | 0.872 | 0.891 | 0.88 | 0.874 | 0.873 | 0.82 | 0.814 | 0.693 | 0.862 | 0.799 | 0.767 | 0.776 | 0.747 | 0.818 | 0.781 |
| NCI-H23 | 0.29 | – | 0.306 | 0.302 | 0.324 | 0.999 | 1.36 | 1.08 | 1.05 | 1.07 | 0.47 | 0.581 | 0.491 | 0.516 | 0.497 | 0.479 | 0.525 | 0.393 | 0.574 | 0.496 |
| NCI-H322M | 0.598 | 0.548 | 0.666 | 0.632 | 0.625 | 0.588 | 0.648 | 0.652 | 0.571 | 0.647 | 0.566 | 0.533 | 0.534 | 0.511 | 0.554 | 0.494 | 0.577 | 0.371 | 0.519 | 0.534 |
| NCI-H358 | 0.23 | 0.194 | 0.214 | 0.255 | 0.19 | 0.448 | 0.485 | 0.451 | 0.451 | 0.452 | 0.301 | 0.324 | 0.332 | 0.39 | 0.318 | 0.339 | 0.349 | 0.218 | 0.366 | 0.304 |
| NCI-H460 | 0.459 | 0.448 | 0.335 | 0.55 | 0.44 | 0.962 | 0.983 | 1.06 | 1 | 0.999 | 0.392 | 0.373 | 0.463 | 0.365 | 0.403 | 0.326 | 0.393 | 0.27 | 0.437 | 0.393 |
| NCI-H520 | 0.505 | 0.523 | 0.395 | 0.472 | 0.47 | 0.853 | 0.908 | 0.645 | 0.729 | 0.824 | 0.253 | 0.364 | 0.255 | 0.225 | 0.292 | 0.327 | 0.295 | 0.289 | 0.363 | 0.297 |
| NCI-H596 | 1.02 | 0.961 | 1.03 | 1.13 | 0.879 | 1.18 | 1.19 | 1.05 | 0.934 | 1.17 | 0.222 | 0.432 | 0.395 | 0.403 | 0.422 | 0.439 | 0.432 | 0.36 | 0.401 | 0.414 |
| NCI-H647 | 0.396 | 0.444 | 0.429 | 0.378 | 0.318 | 1.09 | 0.937 | 0.943 | 0.938 | 1.01 | 0.432 | 0.483 | 0.455 | 0.425 | 0.567 | 0.493 | 0.316 | 0.463 | 0.4 | 0.466 |
| NCI-H650 | 0.292 | 0.369 | 0.387 | 0.398 | 0.376 | 0.852 | 1.07 | 1.19 | 1.04 | 0.99 | 0.946 | 0.935 | 0.775 | 0.859 | 0.883 | 0.787 | 0.789 | – | 1.05 | 0.942 |
| NCI-H661 | 0.557 | 0.54 | 0.595 | 0.516 | 0.523 | 0.627 | 0.601 | 0.537 | 0.434 | 0.567 | 0.461 | 0.368 | 0.419 | 0.353 | 0.52 | 0.351 | 0.419 | – | 0.404 | 0.361 |
| NCI-H727 | 0.823 | 0.906 | – | 0.794 | 0.887 | 0.885 | 0.783 | 0.879 | 0.996 | 0.986 | 0.314 | 0.356 | 0.473 | 0.331 | 0.385 | 0.36 | 0.555 | 0.228 | 0.391 | 0.506 |
| NCI-H838 | 0.488 | 0.49 | 0.486 | 0.496 | 0.502 | 0.905 | 1.14 | 0.96 | 1 | 0.87 | 0.393 | 0.489 | 0.426 | 0.422 | 0.418 | 0.423 | 0.428 | 0.284 | 0.488 | 0.441 |
| NCI-H1355 | 0.388 | 0.393 | 0.355 | 0.382 | 0.401 | 0.942 | 1.01 | 0.992 | 0.876 | 0.929 | 0.358 | 0.526 | 0.451 | 0.429 | 0.42 | 0.427 | 0.375 | 0.354 | 0.546 | 0.476 |
| NCI-H1395 | 0.707 | 0.765 | – | 0.765 | 0.773 | 0.925 | 1.04 | 1.01 | 1.18 | 1.12 | 0.612 | 0.664 | 0.617 | 0.65 | 0.816 | 0.574 | 0.556 | 0.52 | 0.683 | 0.809 |
| NCI-H1437 | 0.567 | 0.561 | 0.644 | 0.56 | 0.592 | 0.815 | 0.847 | 0.723 | 0.79 | 0.673 | 0.412 | 0.501 | 0.471 | 0.424 | 0.363 | 0.464 | 0.411 | 0.453 | 0.628 | 0.506 |
| NCI-H1650 | 0.451 | 0.439 | 0.553 | 0.398 | 0.378 | 0.833 | 1.07 | 0.773 | 0.941 | 0.875 | 0.554 | 0.806 | 0.635 | 0.658 | 0.597 | 0.555 | 0.688 | 0.531 | 0.686 | 0.586 |
